{"source": "ChEMBL document CHEMBL3351789", "about": "“Triazolopyridines as selective JAK1 inhibitors: from hit identification to GLPG0634” (J Med Chem, 2014)", "key": {"[1]": {"assay": "AUC (0 to infinity) in rat at 1 mg/kg, iv", "assay_type": "ADME, organism-based", "set-up": "time infinity, dose 1 mg/kg, route intravenous", "conditions": "plasma"}, "[2]": {"assay": "Bioavailability in rat at 1 mg/kg, iv", "assay_type": "ADME, organism-based", "conditions": "in vivo"}, "[3]": {"assay": "Tmax in rat at 5 mg/kg, po", "assay_type": "ADME, organism-based", "set-up": "dose 5 mg/kg, route oral", "conditions": "in vivo"}, "[4]": {"assay": "AUC (0 to infinity) in rat at 5 mg/kg, po", "assay_type": "ADME, organism-based", "set-up": "time infinity, dose 5 mg/kg, route oral", "conditions": "plasma"}, "[5]": {"assay": "Kinetic solubility of the compound at pH 7.4", "conditions": "buffer"}, "[6]": {"assay": "Half life in rat at 5 mg/kg, po", "assay_type": "ADME, organism-based", "set-up": "dose 5 mg/kg, route oral", "conditions": "in vivo"}, "[7]": {"target": "Tyrosine-protein kinase JAK2 (Homo sapiens, UniProt O60674)", "sequence (O60674 whole entry)": "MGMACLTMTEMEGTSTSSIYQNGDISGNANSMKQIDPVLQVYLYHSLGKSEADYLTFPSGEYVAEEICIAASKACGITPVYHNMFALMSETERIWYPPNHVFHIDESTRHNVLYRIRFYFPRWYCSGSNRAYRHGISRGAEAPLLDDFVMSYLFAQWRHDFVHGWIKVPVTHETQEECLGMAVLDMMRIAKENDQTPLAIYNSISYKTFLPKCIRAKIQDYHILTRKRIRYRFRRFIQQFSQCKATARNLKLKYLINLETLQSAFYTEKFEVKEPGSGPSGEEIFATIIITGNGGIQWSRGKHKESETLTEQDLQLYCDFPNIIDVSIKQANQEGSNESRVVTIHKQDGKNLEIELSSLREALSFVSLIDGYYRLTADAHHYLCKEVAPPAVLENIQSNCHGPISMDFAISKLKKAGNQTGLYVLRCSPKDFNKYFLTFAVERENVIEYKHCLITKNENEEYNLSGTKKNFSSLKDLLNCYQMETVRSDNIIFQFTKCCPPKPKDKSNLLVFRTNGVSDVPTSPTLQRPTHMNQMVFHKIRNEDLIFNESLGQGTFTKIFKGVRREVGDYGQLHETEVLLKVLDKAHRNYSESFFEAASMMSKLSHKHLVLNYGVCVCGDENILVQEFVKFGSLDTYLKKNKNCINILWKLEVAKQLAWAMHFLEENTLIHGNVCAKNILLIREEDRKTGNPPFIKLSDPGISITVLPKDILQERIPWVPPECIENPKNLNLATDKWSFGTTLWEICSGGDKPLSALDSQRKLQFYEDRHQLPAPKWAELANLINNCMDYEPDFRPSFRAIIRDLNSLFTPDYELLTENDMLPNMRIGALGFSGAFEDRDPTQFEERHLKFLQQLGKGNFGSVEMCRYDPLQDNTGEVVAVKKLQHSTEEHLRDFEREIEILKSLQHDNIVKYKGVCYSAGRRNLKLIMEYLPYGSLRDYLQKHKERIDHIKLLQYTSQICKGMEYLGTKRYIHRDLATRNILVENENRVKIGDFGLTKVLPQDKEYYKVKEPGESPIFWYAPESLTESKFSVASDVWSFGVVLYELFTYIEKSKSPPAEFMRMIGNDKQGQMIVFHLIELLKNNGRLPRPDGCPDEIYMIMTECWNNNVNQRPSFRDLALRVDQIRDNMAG", "assay": "Inhibition of JAK2 in human whole blood assessed as inhibition of GM-CSF-induced pSTAT5"}, "[8]": {"assay": "Oral bioavailability in rat at 5 mg/kg", "assay_type": "ADME, organism-based", "conditions": "in vivo"}, "[9]": {"assay": "Clearance in rat at 1 mg/kg, iv", "assay_type": "ADME, organism-based", "set-up": "dose 1 mg/kg, route intravenous", "conditions": "in vivo"}, "[10]": {"assay": "Metabolic stability in rat liver microsomes assessed as compound remaining after 60 mins", "assay_type": "ADME", "conditions": "read-out: Stability"}, "[11]": {"assay": "Half life in rat at 1 mg/kg, iv", "assay_type": "ADME, organism-based", "set-up": "dose 1 mg/kg, route intravenous", "conditions": "in vivo"}, "[12]": {"assay": "Plasma protein binding in rat"}, "[13]": {"assay": "Volume of distribution at steady state in dog at 1 mg/kg, iv", "assay_type": "ADME, organism-based, Canis lupus familiaris", "set-up": "dose 1 mg/kg, route intravenous", "conditions": "in vivo, read-out: Vdss"}, "[14]": {"assay": "Thermodynamic solubility in aqueous buffer solution at pH 7.4", "assay_type": "physicochemical"}, "[15]": {"assay": "Half life in dog hepatocytes", "assay_type": "ADME, cell-based, Canis lupus familiaris, Hepatocyte"}, "Rattus norvegicus [16]": {"system": "Rattus norvegicus", "assay": "Antiinflammatory activity in rat collagen-induced arthritis model assessed as reduction in clinical score at 0.3 mg/kg, po measured up to day 15", "assay_type": "functional, organism-based", "set-up": "dose 0.3 mg/kg"}, "[17]": {"assay": "Plasma protein binding in human", "assay_type": "ADME, cell-free", "conditions": "read-out: PPB (converted)"}, "[18]": {"assay": "Cmax in dog at 5 mg/kg, po", "assay_type": "ADME, organism-based, Canis lupus familiaris", "set-up": "dose 5 mg/kg, route oral", "conditions": "in vivo"}, "Rattus norvegicus [19]": {"system": "Rattus norvegicus", "assay": "Antiinflammatory activity in po dosed rat collagen-induced arthritis model assessed as reduction in clinical score measured up to day 15", "assay_type": "functional, organism-based"}, "[20]": {"assay": "Half life in dog at 1 mg/kg, iv", "assay_type": "ADME, organism-based, Canis lupus familiaris", "set-up": "dose 1 mg/kg, route intravenous", "conditions": "in vivo"}, "[21]": {"assay": "Half life in human hepatocytes", "assay_type": "ADME, cell-based, Hepatocyte"}, "[22]": {"assay": "Thermodynamic solubility in aqueous buffer solution at pH 3", "assay_type": "physicochemical"}, "[23]": {"assay": "AUC (0 to infinity) in dog at 1 mg/kg, iv", "assay_type": "ADME, organism-based, Canis lupus familiaris", "set-up": "time infinity, dose 1 mg/kg, route intravenous", "conditions": "plasma"}, "[24]": {"assay": "Cmax in rat at 5 mg/kg, po", "assay_type": "ADME, organism-based", "set-up": "dose 5 mg/kg, route oral", "conditions": "in vivo"}, "[25]": {"assay": "AUC (0 to infinity) in dog at 5 mg/kg, po", "assay_type": "ADME, organism-based, Canis lupus familiaris", "set-up": "dose 5 mg/kg, route oral, time infinity", "conditions": "plasma"}, "[26]": {"assay": "Half life in rat hepatocytes", "assay_type": "ADME, cell-based, Hepatocyte"}, "Cytochrome P450 2C19": {"target": "Cytochrome P450 2C19 (Homo sapiens, UniProt P33261)", "sequence (P33261 whole entry)": "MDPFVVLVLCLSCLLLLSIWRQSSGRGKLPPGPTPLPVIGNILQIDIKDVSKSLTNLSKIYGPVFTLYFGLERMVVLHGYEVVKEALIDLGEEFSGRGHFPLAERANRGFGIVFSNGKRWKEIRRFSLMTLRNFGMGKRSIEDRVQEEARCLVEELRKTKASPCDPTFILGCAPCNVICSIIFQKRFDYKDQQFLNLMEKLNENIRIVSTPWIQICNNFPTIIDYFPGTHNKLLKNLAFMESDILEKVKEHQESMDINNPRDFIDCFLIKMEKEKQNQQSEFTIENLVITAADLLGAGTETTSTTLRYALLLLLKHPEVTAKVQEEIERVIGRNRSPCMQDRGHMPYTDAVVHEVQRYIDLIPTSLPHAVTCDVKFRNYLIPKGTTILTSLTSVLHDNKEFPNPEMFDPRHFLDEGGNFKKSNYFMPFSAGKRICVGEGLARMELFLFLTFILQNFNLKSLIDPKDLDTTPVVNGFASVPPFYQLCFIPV", "assay": "Inhibition of CYP2C19 (unknown origin)", "assay_type": "ADME"}, "[27]": {"assay": "Metabolic stability in dog liver microsomes assessed as compound remaining after 60 mins", "assay_type": "ADME, Canis lupus familiaris", "conditions": "read-out: Stability"}, "Cytochrome P450 2D6": {"target": "Cytochrome P450 2D6 (Homo sapiens, UniProt P10635)", "sequence (P10635 whole entry)": "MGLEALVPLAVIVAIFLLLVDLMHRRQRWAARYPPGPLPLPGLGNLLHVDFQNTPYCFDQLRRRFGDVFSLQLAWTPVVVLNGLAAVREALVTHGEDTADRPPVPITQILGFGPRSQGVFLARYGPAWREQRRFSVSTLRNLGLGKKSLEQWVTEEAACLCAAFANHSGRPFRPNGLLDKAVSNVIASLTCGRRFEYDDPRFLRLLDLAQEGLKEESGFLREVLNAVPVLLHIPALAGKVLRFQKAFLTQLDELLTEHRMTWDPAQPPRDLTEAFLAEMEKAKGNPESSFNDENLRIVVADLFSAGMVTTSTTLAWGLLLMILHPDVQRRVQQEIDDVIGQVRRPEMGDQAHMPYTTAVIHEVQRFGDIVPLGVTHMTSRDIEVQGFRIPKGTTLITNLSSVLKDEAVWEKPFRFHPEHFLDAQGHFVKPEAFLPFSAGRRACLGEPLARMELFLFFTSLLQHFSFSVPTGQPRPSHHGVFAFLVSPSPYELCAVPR", "assay": "Inhibition of CYP2D6 (unknown origin)", "assay_type": "ADME"}, "[28]": {"assay": "Half life in dog at 5 mg/kg, po", "assay_type": "ADME, organism-based, Canis lupus familiaris", "set-up": "dose 5 mg/kg, route oral", "conditions": "in vivo"}, "Cytochrome P450 1A2": {"target": "Cytochrome P450 1A2 (Homo sapiens, UniProt P05177)", "sequence (P05177 whole entry)": "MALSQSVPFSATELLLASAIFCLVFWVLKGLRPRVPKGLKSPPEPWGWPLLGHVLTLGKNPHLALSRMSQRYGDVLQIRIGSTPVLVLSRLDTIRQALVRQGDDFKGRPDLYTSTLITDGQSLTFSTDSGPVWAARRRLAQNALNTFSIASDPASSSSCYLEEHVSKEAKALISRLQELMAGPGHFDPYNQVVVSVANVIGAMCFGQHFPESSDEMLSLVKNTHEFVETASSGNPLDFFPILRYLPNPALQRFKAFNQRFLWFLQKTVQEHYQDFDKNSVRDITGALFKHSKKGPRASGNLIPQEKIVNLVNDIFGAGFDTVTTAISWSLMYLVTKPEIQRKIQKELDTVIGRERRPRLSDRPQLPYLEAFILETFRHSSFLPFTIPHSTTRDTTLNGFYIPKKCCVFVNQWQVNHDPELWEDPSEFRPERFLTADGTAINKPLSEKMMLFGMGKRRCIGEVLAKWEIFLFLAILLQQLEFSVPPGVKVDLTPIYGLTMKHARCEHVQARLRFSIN", "assay": "Inhibition of CYP1A2 (unknown origin)", "assay_type": "ADME"}, "[29]": {"assay": "Plasma protein binding in dog", "assay_type": "ADME, cell-free, Canis lupus familiaris", "conditions": "read-out: PPB (converted)"}, "Rattus norvegicus [30]": {"system": "Rattus norvegicus", "assay": "Antiinflammatory activity in rat collagen-induced arthritis model assessed as reduction in clinical score at 0.1 mg/kg, po measured up to day 15", "assay_type": "functional, organism-based", "set-up": "dose 0.1 mg/kg"}, "[31]": {"assay": "Tmax in dog at 5 mg/kg, po", "assay_type": "ADME, organism-based, Canis lupus familiaris", "set-up": "dose 5 mg/kg, route oral", "conditions": "in vivo"}, "[32]": {"assay": "Clearance in dog at 1 mg/kg, iv", "assay_type": "ADME, organism-based, Canis lupus familiaris", "set-up": "dose 1 mg/kg, route intravenous", "conditions": "in vivo"}, "[33]": {"assay": "Oral bioavailability in dog at 1 mg/kg, iv and 5 mg/kg", "assay_type": "ADME, organism-based, Canis lupus familiaris", "conditions": "in vivo"}, "Jak1 protein": {"target": "Jak1 protein (Rattus norvegicus, UniProt Q5FVF5)", "sequence (Q5FVF5 whole entry)": "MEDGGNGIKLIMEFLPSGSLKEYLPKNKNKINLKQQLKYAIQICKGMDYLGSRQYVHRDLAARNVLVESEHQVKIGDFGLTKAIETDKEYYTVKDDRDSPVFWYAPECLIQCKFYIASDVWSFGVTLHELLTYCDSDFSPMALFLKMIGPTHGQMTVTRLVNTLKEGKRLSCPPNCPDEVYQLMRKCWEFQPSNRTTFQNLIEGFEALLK", "assay": "Inhibition of rat JAK1"}, "Cytochrome P450 2C9": {"target": "Cytochrome P450 2C9 (Homo sapiens, UniProt P11712)", "sequence (P11712 whole entry)": "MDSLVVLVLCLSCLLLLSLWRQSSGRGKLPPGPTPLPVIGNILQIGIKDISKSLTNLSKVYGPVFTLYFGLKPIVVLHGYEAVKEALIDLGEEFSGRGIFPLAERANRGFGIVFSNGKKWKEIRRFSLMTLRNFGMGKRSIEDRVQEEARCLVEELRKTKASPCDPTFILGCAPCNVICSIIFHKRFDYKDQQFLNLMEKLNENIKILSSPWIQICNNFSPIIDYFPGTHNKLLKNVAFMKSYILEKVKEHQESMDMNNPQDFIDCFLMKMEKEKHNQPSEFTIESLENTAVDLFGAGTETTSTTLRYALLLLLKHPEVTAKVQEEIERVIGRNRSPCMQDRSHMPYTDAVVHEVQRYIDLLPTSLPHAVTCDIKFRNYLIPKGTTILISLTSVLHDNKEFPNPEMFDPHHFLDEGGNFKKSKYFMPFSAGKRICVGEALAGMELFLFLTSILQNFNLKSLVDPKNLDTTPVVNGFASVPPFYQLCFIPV", "assay": "Inhibition of CYP2C9 (unknown origin)", "assay_type": "ADME"}, "[34]": {"assay": "Permeability across apical to basolateral side in human Caco2 cells", "assay_type": "ADME, cell-based", "conditions": "caco-2"}, "[35]": {"assay": "Cmax in dog at 1 mg/kg, iv", "assay_type": "ADME, organism-based, Canis lupus familiaris", "set-up": "dose 1 mg/kg, route intravenous", "conditions": "in vivo"}, "[36]": {"assay": "Metabolic stability in human liver microsomes assessed as compound remaining after 60 mins", "assay_type": "ADME", "conditions": "read-out: Stability"}}, "note": "The source made the active and inactive calls. The calls are words filed in the database; no cut-off is given here.", "data": [{"smiles": "O=C(Nc1nc2cccc(-c3ccc(CN4CCOCC4)cc3)n2n1)C1CC1", "values": [{"measurement": "AUC(0-inf)", "setting": "[1]", "value": 470, "unit": "ng·h/mL"}, {"measurement": "bioavailability", "setting": "[2]", "value": 62, "unit": "%"}, {"measurement": "Tmax", "setting": "[3]", "value": 0.33, "unit": "h"}, {"measurement": "AUC(0-inf)", "setting": "[4]", "value": 1440, "unit": "ng·h/mL"}, {"measurement": "solubility kinetic", "setting": "[5]", "value": "> 38", "unit": "µg/mL"}, {"measurement": "half-life", "setting": "[6]", "value": 0.92, "unit": "h"}, {"measurement": "IC50", "setting": "[7]", "value": "> 30", "unit": "µM"}, {"measurement": "bioavailability", "setting": "[8]", "value": 45, "unit": "%"}, {"measurement": "clearance", "setting": "[9]", "value": 35.3, "unit": "mL/min/kg"}, {"measurement": "remaining at 1 h", "setting": "[10]", "value": 38, "unit": "%"}, {"measurement": "half-life", "setting": "[11]", "value": 0.74, "unit": "h"}, {"measurement": "fraction unbound", "setting": "[12]", "value": 0.29}]}, {"smiles": "O=C(Nc1nc2cccc(-c3ccc(CN4CCS(=O)(=O)CC4)cc3)n2n1)C1CC1", "note": "[FILGOTINIB]", "values": [{"measurement": "Vd", "setting": "[13]", "value": 1.7, "unit": "L/kg"}, {"measurement": "AUC(0-inf)", "setting": "[1]", "value": 739, "unit": "ng·h/mL"}, {"measurement": "Therm solubility", "setting": "[14]", "value": 40, "unit": "µg/mL"}, {"measurement": "half-life", "setting": "[15]", "value": 3.33, "unit": "h"}, {"measurement": "inhibition", "setting": "Rattus norvegicus [16]", "value": "Active"}, {"measurement": "fraction unbound", "setting": "[17]", "value": 0.682}, {"measurement": "Cmax", "setting": "[18]", "value": 1810, "unit": "ng/mL"}, {"measurement": "inhibition", "setting": "Rattus norvegicus [19]", "value": "Dose-dependent effect"}, {"measurement": "half-life", "setting": "[20]", "value": 7.5, "unit": "h"}, {"measurement": "half-life", "setting": "[21]", "value": 3.33, "unit": "h"}, {"measurement": "Therm solubility", "setting": "[22]", "value": 243, "unit": "µg/mL"}, {"measurement": "Tmax", "setting": "[3]", "value": 2.2, "unit": "h"}, {"measurement": "AUC(0-inf)", "setting": "[23]", "value": 4100, "unit": "ng·h/mL"}, {"measurement": "Cmax", "setting": "[24]", "value": 310, "unit": "ng/mL"}, {"measurement": "AUC(0-inf)", "setting": "[25]", "value": 13900, "unit": "ng·h/mL"}, {"measurement": "half-life", "setting": "[26]", "value": 3.33, "unit": "h"}, {"measurement": "AUC(0-inf)", "setting": "[4]", "value": 1680, "unit": "ng·h/mL"}, {"measurement": "solubility kinetic", "setting": "[5]", "value": "> 85", "unit": "µg/mL"}, {"measurement": "IC50", "setting": "Cytochrome P450 2C19", "value": "> 70", "unit": "µM"}, {"measurement": "remaining at 1 h", "setting": "[27]", "value": 45, "unit": "%"}, {"measurement": "IC50", "setting": "Cytochrome P450 2D6", "value": "> 70", "unit": "µM"}, {"measurement": "half-life", "setting": "[28]", "value": 5.2, "unit": "h"}, {"measurement": "IC50", "setting": "Cytochrome P450 1A2", "value": "> 70", "unit": "µM"}, {"measurement": "fraction unbound", "setting": "[29]", "value": 0.711}, {"measurement": "half-life", "setting": "[6]", "value": 3.9, "unit": "h"}, {"measurement": "inhibition", "setting": "Rattus norvegicus [30]", "value": "Active"}, {"measurement": "Tmax", "setting": "[31]", "value": 1.5, "unit": "h"}, {"measurement": "clearance", "setting": "[32]", "value": 4.17, "unit": "mL/min/kg"}, {"measurement": "bioavailability", "setting": "[33]", "value": 67, "unit": "%"}, {"measurement": "IC50", "setting": "Jak1 protein", "value": 0.029, "unit": "µM"}, {"measurement": "IC50", "setting": "Cytochrome P450 2C9", "value": "> 70", "unit": "µM"}, {"measurement": "permeability", "setting": "[34]", "value": 3.5, "unit": "×10⁻⁶ cm/s"}, {"measurement": "Cmax", "setting": "[35]", "value": 1140, "unit": "ng/mL"}, {"measurement": "remaining at 1 h", "setting": "[10]", "value": 65, "unit": "%"}, {"measurement": "half-life", "setting": "[11]", "value": 1.6, "unit": "h"}, {"measurement": "fraction unbound", "setting": "[12]", "value": 0.525}, {"measurement": "remaining at 1 h", "setting": "[36]", "value": 87, "unit": "%"}]}]}
